Literature values, collected in patent publication US20060275215A1, “Novel imaging agents” (priority 2003, published 2006).

Tests used:
caspase-3 = target: T1, caspase-3 (Homo sapiens, UniProt P42574)
T1 sequence (P42574 29-175 limits assumed): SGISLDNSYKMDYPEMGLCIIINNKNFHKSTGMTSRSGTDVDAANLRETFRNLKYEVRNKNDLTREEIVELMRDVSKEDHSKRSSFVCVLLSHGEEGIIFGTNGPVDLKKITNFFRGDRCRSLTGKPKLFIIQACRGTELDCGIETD
T1 sequence (P42574 176-277 limits assumed): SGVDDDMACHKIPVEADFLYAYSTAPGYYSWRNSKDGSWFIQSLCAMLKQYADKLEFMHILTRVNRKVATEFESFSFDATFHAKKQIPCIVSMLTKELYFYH

[1] = tested on: phosphatidylserine (PS) on the outer membrane of apoptotic cells; conditions: binding to phosphatidylserine on outer membrane of apoptotic cells; read-out: affinity
[2] = labelled with the radioisotope 131I

| Compound | IC50 for caspase-3 (caspase-3) | other results |
| --- | --- | --- |
| CCOc1ccc(OCC(=O)O)cc1CC(=O)NC(C(=O)NC(CC(=O)O)C(=O)CSCc1c(F)cccc1Cl)C(C)C (stereo not drawn) [6A′] | low nanomolar range | – |
| Annexin-5: endogenous human protein (RMM 36 kDa) which binds to phosphatidylserine | – | Kd [1]: ~1 nM |
| benzyloxycarbonyl-Val-Ala-DL-Asp(O-methyl)-fluoromethylketone [Z-VAD-fmk] | – | absolute cellular uptake [2]: low |

The next lines start with results.

| IC50 for caspase-3 (caspase-3) | Compound | other results |
| --- | --- | --- |
| low nanomolar range | CCOc1ccc(OCC(=O)OC)cc1CC(=O)NC(C(=O)NC(CC(=O)O)C(=O)CSCc1c(F)cccc1Cl)C(C)C (stereo not drawn) [Compound 6A] | – |
| low nanomolar range | CCOc1ccc(OCC(=O)OC(C)C)cc1CC(=O)NC(C(=O)NC(CC(=O)O)C(=O)CSCc1c(F)cccc1Cl)C(C)C (stereo not drawn) [Compound 6B] | – |
| low nanomolar range | CCOc1ccc(S(C)(=O)=O)cc1CC(=O)NC(C(=O)NC(CC(=O)O)C(=O)CSCc1c(F)cccc1Cl)C(C)C (stereo not drawn) [Compound 6C] | – |
